Data set [1] is filed under the species Homo sapiens. Briefly: Unbound renal clearance in psychiatric patient treated with clozapine. The class given is ADME, organism-based, Kidney. The conditions noted are these: in vivo.
For data set [2], the species on record is Homo sapiens. The data set is described as follows: Unbound hepatobiliary clearance in psychiatric patient treated with clozapine. The class given is ADME, organism-based. The conditions noted are these: in vivo.
Data set [3] is described as follows: Fraction unbound in psychiatric patient treated with clozapine. The class given is ADME, organism-based. Conditions: human, in vivo.
The nature of data set [4]: Systemic clearance in psychiatric patient treated with clozapine. The conditions noted are these: human, in vivo. The format is ADME, organism-based.

Structures are written as SMILES.

By fraction unbound is commonly meant the share of the substance not bound to proteins or other matrix. Read a low fraction unbound as extensive binding. Usually clearance stands for a measure of how efficiently the substance is removed, as volume per time. A high value points to efficient removal. Take `Clc1ccc2c(c1)N=C(N1CCNCC1)c1ccccc1N2` [N-DESMETHYLCLOZAPINE]: the values for the CL free in the data set listed under Homo sapiens [1] and in the data set filed under Homo sapiens [2] were 5 mL/min/kg and 1.2 mL/min/kg, respectively. In data set [3], the fraction unbound amounted to 0.097. In addition, the clearance in data set [4] came to 0.6 mL/min/kg.

The values above are taken from ChEMBL document CHEMBL3526022, “Which metabolites circulate?” (Drug Metab Dispos, 2013).
